Values quoted from earlier work as cited in patent US20240066015A1, “TREATMENT OF PAIN ASSOCIATED WITH PARKINSON'S DISEASE” (BIAL-PORTELA & CA., S.A., priority 2021, published 2024).

Tests used:
[1] = in comparison with placebo, added to levodopa-based therapy
[2] = oral administration, peripheral metabolism by DDC and COMT
[3] = hot plate test
[4] = patients with PD and end-of-dose motor fluctuations
[5] = transdermal patch, patients with advanced-stage PD; trial not powered for statistical significance
[6] = BIPARK-II trial and OPTIPARK study

C[C@H](NCc1ccc(OCc2cccc(F)c2)cc1)C(N)=O [Safinamide]
PDQ-39 pain-related items [1]: significantly improve two out of three
need for pain medication [1]: significantly reduce

N[C@@H](Cc1ccc(O)c(O)c1)C(=O)O [levodopa]
share of an oral dose that reaches the brain [2]: 1%

CC(=O)C(=Cc1cc(O)c(O)c([N+](=O)[O-])c1)C(C)=O [nitecapone]
mediation of the analgesic effect [3]: not mediated through the CNS

Cc1c(Cl)c(C)[n+]([O-])c(Cl)c1-c1noc(-c2cc(O)c(O)c([N+](=O)[O-])c2)n1 [opicapone]
OFF-time [4]: efficacious in reducing OFF-time
tolerability [4]: generally well tolerated
NMSS "Miscellaneous" domain effect compared with placebo (BIPARK-II trial): less than for that observed for placebo
NMSS "Miscellaneous" domain (includes pain as one aspect) [6]: positive signal
specific effect on pain [6]: no specific effect on pain was identifiable

CCCN(CCc1cccs1)[C@H]1CCc2c(O)cccc2C1 [rotigotine]
PD-associated chronic pain [5]: may improve
